Data from paper PMC11188740, “A small molecule that inhibits the evolution of antibiotic resistance” (NAR Molecular Medicine, 2024).
pKd: −log10 of the molar value.

Columns and labels:
Mfd [1] = target: T1, Mfd (Escherichia coli, UniProt P30958); assay: microscale thermophoresis (His-tag labeled Mfd); also RNAP displacement assay with purified Mfd; assay type: binding
T1 construct: purified His-tagged E. coli Mfd (expressed from pCA24N-Mfd)

Mfd [2] = target: T1, Mfd; assay: NADH-coupled ATPase assay, Michaelis–Menten Km without ARM-1; assay type: biochemical
Description: NADH-coupled ATPase assay, Michaelis–Menten Km without ARM-1 on Mfd | Kinetic constants of Mfd ATPase activity determined using Michaelis–Menten modeling

T1 sequence (P30958 whole entry): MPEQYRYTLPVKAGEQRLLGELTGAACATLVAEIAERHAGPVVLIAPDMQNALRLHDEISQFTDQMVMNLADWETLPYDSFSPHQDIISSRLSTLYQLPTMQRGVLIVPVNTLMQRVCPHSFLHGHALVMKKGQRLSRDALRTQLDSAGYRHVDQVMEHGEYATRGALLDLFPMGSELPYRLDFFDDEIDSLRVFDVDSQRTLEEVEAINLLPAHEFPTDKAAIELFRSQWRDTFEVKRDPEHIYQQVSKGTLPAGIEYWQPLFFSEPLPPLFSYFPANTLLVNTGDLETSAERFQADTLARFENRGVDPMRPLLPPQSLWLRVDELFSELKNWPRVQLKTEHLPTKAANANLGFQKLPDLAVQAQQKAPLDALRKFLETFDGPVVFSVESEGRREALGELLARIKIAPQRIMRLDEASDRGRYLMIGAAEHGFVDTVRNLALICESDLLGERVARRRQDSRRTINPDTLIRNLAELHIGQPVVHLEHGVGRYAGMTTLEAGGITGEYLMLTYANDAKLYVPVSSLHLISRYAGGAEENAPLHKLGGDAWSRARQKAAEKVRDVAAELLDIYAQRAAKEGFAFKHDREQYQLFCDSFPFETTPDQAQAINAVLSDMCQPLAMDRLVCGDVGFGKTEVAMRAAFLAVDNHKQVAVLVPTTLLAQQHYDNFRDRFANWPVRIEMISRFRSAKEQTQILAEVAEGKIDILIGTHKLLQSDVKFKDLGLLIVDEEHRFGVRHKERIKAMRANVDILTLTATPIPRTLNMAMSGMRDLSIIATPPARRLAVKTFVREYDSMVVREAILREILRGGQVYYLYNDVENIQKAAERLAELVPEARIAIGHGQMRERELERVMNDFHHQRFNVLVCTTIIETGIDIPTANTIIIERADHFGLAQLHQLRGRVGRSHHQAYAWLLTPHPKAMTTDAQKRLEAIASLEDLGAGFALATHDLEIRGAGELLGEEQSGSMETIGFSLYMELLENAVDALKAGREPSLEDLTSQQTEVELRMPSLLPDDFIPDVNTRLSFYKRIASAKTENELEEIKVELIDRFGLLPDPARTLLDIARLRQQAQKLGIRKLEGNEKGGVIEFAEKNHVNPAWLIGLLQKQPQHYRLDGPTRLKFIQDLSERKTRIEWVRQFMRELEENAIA

In the case of Cc1cc(Br)ccc1-c1ccc(CNCCCN(C)C)o1 [ARM-1], the pKd (Mfd [1]) was 5.37.
In the case of Nc1ncnc2c1ncn2[C@@H]1O[C@H](COP(=O)(O)OP(=O)(O)OP(=O)(O)O)[C@@H](O)[C@H]1O [ATP], the “K m / Mean” value (Mfd [2]) was 0.954.
